Results on 102 compounds are retold here after PubChem BioAssay AID1996.

Molecules are shown by their SMILES. Values after ≈ are worked out from the molar mass of the structure shown.

For this data set the following is noted: buffer; pH 7.4; 200.0 µM.
Compound `CC(O)c1ccc(Oc2cnccn2)cc1` (configuration not stated) came in with a kinetic solubility of over 32.4 µg/mL.
Next, `Cc1cc(OCC(=O)N(C)Cc2ccccc2)cc(C)c1Cl`: 8.3 µg/mL (≈ 26.1 µM).
Next, `Cc1cccc(C)c1NC(=S)N1CCC(c2ccccc2)C1` (configuration not stated): 34.1 µg/mL (≈ 110 µM); `COc1ccccc1CN(C)C(=O)CN1C(=O)c2ccccc2C1=O`: 17 µg/mL (≈ 50.2 µM); `O=c1[nH]c(CSc2ccccc2)nc2c1oc1ccccc12`: 2.2 µg/mL (≈ 7.13 µM).
Turning to `CN(C)Cc1c(O)ccc2occ(C(=O)c3ccc(F)cc3)c12`, the kinetic solubility is over 47 µg/mL.
Regarding `COc1ccc(C(=O)COC(=O)c2sc(C)nc2C)cc1F`, the kinetic solubility was found to be 36.5 µg/mL (≈ 113 µM).
Regarding `CCn1cc(S(=O)(=O)Nc2cc(C(=O)OC)ccc2C)cn1`, the kinetic solubility is over 48.5 µg/mL.
In turn, `COc1cccc(Nc2nc(C)cc(C)c2C(N)=O)c1` displayed a kinetic solubility of over 40.7 µg/mL.
On to `COc1ccc(OC)c(-c2cc(C(=O)Nc3ccccc3C(N)=O)c3ccccc3n2)c1`, for which the solubility (kinetic) is 5.9 µg/mL (≈ 13.8 µM).
With `O=c1[nH]c(/C=C/c2ccc([N+](=O)[O-])cc2)c([N+](=O)[O-])c(=O)[nH]1`, the solubility (kinetic) was 24.9 µg/mL (≈ 81.8 µM).
The result for `Cc1cccc(Cn2nc(C(C)(C)C)cc2C(=O)N2CCOCC2)c1` reads over 51.2 µg/mL.
The result for `O=C(c1cccc([N+](=O)[O-])c1)N1CCCC(C(=O)N2CCCCCC2)C1` (configuration not stated) reads over 53.9 µg/mL; that for `N#C/C(=C\c1ccncc1)c1ccc(NC(N)=O)cc1`, 13.8 µg/mL (≈ 52.2 µM); that for `COc1ccc(-n2c(-c3ccc(Cl)cc3)c[nH]c2=S)cc1`, 1.5 µg/mL (≈ 4.73 µM).
Consider `CC1CCCC(C)N1C(=O)COC(=O)c1ccc2ccccc2n1` (configuration not stated), for which the kinetic solubility came out at 15.3 µg/mL (≈ 46.9 µM). Against the preceding compound, the solubility kinetic is about 10-fold higher.
`COc1ccccc1C(=O)OCCN=C1NS(=O)(=O)c2ccccc21` returned a kinetic solubility of over 54.1 µg/mL.
Take `O=[N+]([O-])c1ccc(CSc2ccccn2)cc1`: the kinetic solubility worked out at 15.2 µg/mL (≈ 61.7 µM).
In turn, `Cc1ccccc1C(=O)NCCCNC(=O)c1cnccn1` came in with a solubility (kinetic) of 40.1 µg/mL (≈ 134 µM).
Compound `COc1ccc2nc(NC(=O)NC3CCCCC3)sc2c1` registered a kinetic solubility of under 0.2 µg/mL.
Take `N#Cc1ccc(C(=O)Nc2nc3ccccc3[nH]2)cc1`: the solubility (kinetic) turned out to be 2.6 µg/mL (≈ 9.91 µM).
On to `Cc1ccc(NCC(O)Cn2cnc3c2c(=O)n(C)c(=O)n3C)cc1` (configuration not stated), for which the solubility (kinetic) was determined as 31.8 µg/mL (≈ 92.6 µM).
Next, `CCCCn1c(C)c(C(=O)O)c2cc(OC)c3ccccc3c21`: 2.9 µg/mL (≈ 9.31 µM).
For the compound `O=[N+]([O-])c1ccc(Cl)c(CN2CCN(c3ncccn3)CC2)c1`, the solubility (kinetic) amounted to 35.1 µg/mL (≈ 105 µM).
Turning to `Cc1ccnc(NS(=O)(=O)c2ccc(Cl)nc2)c1`, the solubility (kinetic) was 26.9 µg/mL (≈ 94.8 µM).
Compound `CCCCN(CCCC)c1ncnc2nc[nH]c12` registered a kinetic solubility of 29.8 µg/mL (≈ 120 µM).
For the compound `COC(=O)c1ccccc1N=Nc1c(N)n[nH]c1N`, the kinetic solubility is over 39 µg/mL.
The compound `O=C(/C=C/c1ccc(Cl)cc1)N1CCOCC1` returned a solubility (kinetic) of 33.3 µg/mL (≈ 132 µM).
The result for `Cc1nonc1CC(=O)N1CCCC(C(=O)c2ccc(Cl)cc2)C1` (configuration not stated) reads 48.2 µg/mL (≈ 139 µM); that for `O=C(NC12CC3CC(CC(C3)C1)C2)N1CCN(c2ccccc2)CC1`, 12.7 µg/mL (≈ 37.4 µM); that for `Cc1ccc(S(=O)(=O)CC(O)COc2ccccc2C#N)cc1` (configuration not stated), over 49.7 µg/mL.
`CCOC(=O)c1csc(NC(=O)CN2CCN(C)CC2)n1` showed a solubility (kinetic) of over 46.9 µg/mL.
The compound `Cn1c(SCc2cccnc2)nc2c(c1=O)SCC2` yielded a solubility (kinetic) of over 43.7 µg/mL.
In turn, `COc1cc(/C=C/C(=O)N(C)CC(=O)Nc2ccccc2SC)cc(OC)c1OC` registered a solubility (kinetic) of over 64.6 µg/mL.
For `COc1ccccc1NC(=O)/C=C\c1ccco1`, the kinetic solubility stood at 25.8 µg/mL (≈ 106 µM).
As to `Cn1c(=O)c(S(=O)C2CCCCC2)c(O)c2ccccc21` (configuration not stated), the solubility (kinetic) was over 45.8 µg/mL.
The result for `COc1ccc(S(=O)(=O)Nc2cc3c4c(c2)CC(=O)N4CCC3)cc1` reads 50 µg/mL (≈ 140 µM).
The compound `CN(C)c1ccc(CNc2ncnc3sccc23)cc1` registered a solubility (kinetic) of 29.7 µg/mL (≈ 104 µM).
Next, `O=C1C2C3C=CC(CC3)C2C(=O)N1c1ccc(Cl)cc1Cl` (configuration not stated): 9.7 µg/mL (≈ 30.1 µM); `CC(C)CN(C(=O)CCNC(=O)c1ccc(Cl)cc1)C1CCS(=O)(=O)C1` (configuration not stated): over 60.1 µg/mL.
The result for `COc1ccc(OCC(O)CN2CC(C)OC(C)C2)cc1.Cl` (configuration not stated) reads over 49.8 µg/mL; that for `O=C(COC(=O)Cc1c(Cl)cccc1Cl)NCc1ccco1`, over 51.3 µg/mL; that for `CC(C)NC(=O)c1ccc2c(=O)n(CC3CCCO3)c(=S)[nH]c2c1` (configuration not stated), 4.4 µg/mL (≈ 12.7 µM).
In turn, `O=C1CS/C(=C/C(=O)c2cccc(Cl)c2)N1` displayed a solubility (kinetic) of 10.5 µg/mL (≈ 41.4 µM).
The compound `CCc1noc(C)c1C(=O)Nc1nc(-c2cccs2)cs1` displayed a kinetic solubility of 19.3 µg/mL (≈ 60.4 µM).
Compound `OCc1nc2ccccc2n1Cc1ccc(Cl)cc1` returned a kinetic solubility of 28.4 µg/mL (≈ 104 µM).
As for `O=C(COC(=O)CC1CC2CCC1C2)NCc1ccc(Cl)cc1` (configuration not stated), the solubility (kinetic) came out at 6.2 µg/mL (≈ 18.5 µM). Against the preceding compound, the solubility kinetic is about 4.6-fold lower.
Next, `CC(=O)c1ccc(NC(=O)CCCC(=O)c2ccccc2)cc1`: 3.6 µg/mL (≈ 11.6 µM); `Cl.O=C(NC1CCN(Cc2ccccc2)CC1)c1ccccc1NS(=O)(=O)c1ccc(F)cc1`: over 75.6 µg/mL.
Next, `CCCCC(Sc1nc(C)c(Cc2ccccc2)c(=O)[nH]1)C(=O)O` (configuration not stated): over 52 µg/mL; `O=S(=O)(c1cccc2nsnc12)N1CCNCC1`: over 42.7 µg/mL; `O=C1NC(=O)N(c2ccc3c(c2)OCO3)C(=O)/C1=C\c1ccsc1`: over 51.3 µg/mL.
The result for `CC(C)(C)C(=O)NC1CCSC1=O` (configuration not stated) reads over 30.2 µg/mL.
In the case of `CC(CN1CCCCC1)OC(=O)c1ccco1.Cl` (configuration not stated), the kinetic solubility is over 41.1 µg/mL.
In turn, `O=C(CN1C(=O)c2ccccc2C1=O)N(CCO)Cc1ccccc1` had a solubility (kinetic) of 48.7 µg/mL (≈ 144 µM).
On to `CCOC(=O)C(=O)Nc1sc(C(=O)N(CC)CC)c(C)c1C#N`, for which the solubility (kinetic) was over 50.6 µg/mL.
`Cc1ccccc1Cn1c(C)cc(C)c(C#N)c1=O` displayed a solubility (kinetic) of 8.1 µg/mL (≈ 32.1 µM).
The result for `CCC(=O)N1CCCC(C(=O)c2ccc(-c3ccccc3)cc2)C1` (configuration not stated) reads 29.9 µg/mL (≈ 93 µM); that for `COc1ccc(OC)c(Nc2nc(NCc3ccco3)nc(N)c2[N+](=O)[O-])c1`, under 0.1 µg/mL.
Regarding `Cc1ccc(S(=O)(=O)N(C)CC(=O)NCC(=O)Nc2ccc(F)c(F)c2F)cc1`, the solubility (kinetic) amounted to 6.4 µg/mL (≈ 14.9 µM).
In turn, `COc1ccc(CC(=O)Nc2ccc3c(c2)C(=O)N(CCC(=O)O)C3=O)cc1` registered a kinetic solubility of 53.2 µg/mL (≈ 139 µM).
`CC1CCC2(CC1)NC(=O)N(CC(=O)Nc1ccc(C(N)=O)cc1)C2=O` (configuration not stated) yielded a solubility (kinetic) of over 53.8 µg/mL.
`C=Cn1cc[n+](CC(=O)c2ccc(Cl)cc2)c1.[Br-]`: the solubility (kinetic) came to 43.3 µg/mL.
The compound `Cc1cc(NS(=O)(=O)c2cccc([N+](=O)[O-])c2)no1` displayed a solubility (kinetic) of 32.5 µg/mL (≈ 115 µM). This solubility kinetic and that of the compound before are within 1.5-fold of each other.
Next, `N/C(=N/OC(=O)c1ccc(Cl)cc1)c1ncc([N+](=O)[O-])s1`: 0.2 µg/mL (≈ 0.612 µM); `O=C(NC(=S)Nc1ccc(Br)c(Cl)c1)C1CC1`: under 0.4 µg/mL.
For `CC(=O)N(CN1C(=O)C2C3C=CC(C3)C2C1=O)c1cccc(Cl)c1` (configuration not stated), the kinetic solubility is 50.4 µg/mL (≈ 146 µM).
Next, `c1ccc(-c2ncc(CN3CCN(c4ccccn4)CC3)[nH]2)cc1`: 45.2 µg/mL (≈ 142 µM); `CC(=O)N1CCc2[nH]c3ccc(C)cc3c2C1`: over 34.2 µg/mL; `COc1ccc(C2SCC(=O)N2c2ccc(OC)cc2)cc1` (configuration not stated): 45.7 µg/mL (≈ 145 µM).
In turn, `CCn1c(SCC#N)nc2cc(S(=O)(=O)N3CCOCC3)ccc21` gave a solubility (kinetic) of over 55 µg/mL.
The result for `COc1cccc2c1SCc1ccccc1C2CC(N)=O` (configuration not stated) reads 39.2 µg/mL (≈ 131 µM).
`COc1cc(NC(=O)COC(C)=O)cc(OC)c1OC` came in with a solubility (kinetic) of 39 µg/mL (≈ 138 µM). This solubility kinetic and that of the compound before are within 1.5-fold of each other.
The compound `O=C(COc1ccc(NC(=O)c2ccccc2)cc1)c1ccccc1` yielded a solubility (kinetic) of 1.1 µg/mL (≈ 3.32 µM).
In turn, `O=[N+]([O-])c1ccc(N=Cc2c(O)ccc3ccccc23)cc1` came in with a kinetic solubility of 30.5 µg/mL (≈ 104 µM).
Next, `Cc1ccc(S(=O)(=O)n2cnc(C)c2)cc1`: over 35.4 µg/mL; `Clc1cccc(Cl)c1-c1noc(CN2CCOCC2)n1`: 31.8 µg/mL (≈ 101 µM).
The compound `COC(=O)c1oc(-c2ccc(Cl)cc2)nc1C` showed a solubility (kinetic) of 2 µg/mL (≈ 7.95 µM).
In turn, `O=C(NNC(=S)Nc1ccc(F)c(Cl)c1)C1CC1` registered a kinetic solubility of over 43.2 µg/mL.
With `COc1ccc(CCNC(=O)COC(=O)c2cc(S(=O)(=O)N3CCOCC3)ccc2C)cc1OC`, the solubility (kinetic) was over 76 µg/mL.
In turn, `O=C1CSC(c2ccccn2)N1c1ccc(C(F)(F)F)cc1` (configuration not stated) came in with a solubility (kinetic) of over 48.6 µg/mL.
With `CCCCOc1cc(C(=O)NCCN(CC)CC)c2ccccc2n1`, the solubility (kinetic) was over 51.5 µg/mL.
The compound `CN1C[C@@H]2C[C@@H](c3cccn3-c3nccs3)N3CCC[C@@]23C1=O` had a kinetic solubility of 47.2 µg/mL (≈ 144 µM).
For `CNC(=S)N1C2CCCC1CC(NC(=O)c1ccc(F)cc1)C2` (configuration not stated), the kinetic solubility is 21.8 µg/mL (≈ 65 µM).
With `Cc1c(C(=O)NC(C)c2ccccn2)oc2c(Cl)cccc12` (configuration not stated), the solubility (kinetic) was determined as 24.4 µg/mL (≈ 77.5 µM).
In the case of `CCNc1ccc([N+](=O)[O-])cc1`, the kinetic solubility was 19.9 µg/mL (≈ 120 µM). This solubility kinetic and that of the compound before are within 1.5-fold of each other.
For the compound `Cc1ccc2[nH]c(=O)c3cc(C(=O)NCCC(C)C)sc3c2c1`, the kinetic solubility was under 0.4 µg/mL.
The result for `O=C(CNC(=O)c1ccc2ccccc2c1)NC1CCCCC1` reads 13 µg/mL (≈ 41.9 µM); that for `Cc1cccc(C)c1OCC(=O)NC1CC1`, over 32.9 µg/mL; that for `COCCCNC(=O)/C(C#N)=C/c1ccc(F)cc1`, 38.4 µg/mL (≈ 146 µM).
As to `COc1ccc(NC(=O)COC(=O)Cc2coc3cc(OC)ccc23)c(OC)c1`, the solubility (kinetic) turned out to be 11.8 µg/mL (≈ 29.5 µM). This solubility kinetic lies about 3.3-fold lower than the previous one.
For the compound `CC1(C)Cc2ccccc2/C(=C/C(=O)c2ccccc2)N1`, the kinetic solubility was under 0.6 µg/mL.
In turn, `CN(C)c1ccc(-n2cccc2/C=C/[N+](=O)[O-])cc1` registered a kinetic solubility of under 0.2 µg/mL.
`O=C(Cc1ccccc1F)NC1CCSc2ccccc21` (configuration not stated) showed a solubility (kinetic) of 8.1 µg/mL (≈ 26.9 µM).
The result for `Cc1cc2cc(CNC(=O)Nc3ccccc3)ccc2[nH]1` reads 15.6 µg/mL (≈ 55.8 µM); that for `CC1CC(C)(C)NC(=S)N1CCCC(=O)NCc1ccccc1` (configuration not stated), over 50 µg/mL.
Compound `O=C(O)C1C2CCC(O2)C1C(=O)Nc1ccc(OC(F)F)cc1` (configuration not stated) registered a solubility (kinetic) of 44.3 µg/mL (≈ 135 µM).
With `Brc1cnc2nc(SCc3nc4ccccc4[nH]3)[nH]c2c1`, the kinetic solubility is 1.2 µg/mL (≈ 3.33 µM).
For the compound `C/C(=N\N=C(N)N)c1ccccc1`, the kinetic solubility is over 26.4 µg/mL.
In turn, `COc1ccc(S(=O)(=O)N2CCNCC2)cc1` returned a solubility (kinetic) of 31.1 µg/mL (≈ 121 µM).
The compound `Cc1ccc(-c2cc(C(=O)N3CC4(C)CC3CC(C)(C)C4)no2)cc1` (configuration not stated) displayed a kinetic solubility of under 0.4 µg/mL.
The result for `CC(=O)c1sc(NCc2ccc(C)cc2)nc1C` reads 38.6 µg/mL (≈ 148 µM).

For orientation: kinetic solubility means solubility judged after dilution from a stock solution rather than from solid.
